“And” between values parts separate entries of the source, which are not always exact repeats. Equal values may be shown once. Read-outs that look alike come from different tables or passages of the source.

Series [1] in a line: In vitro flags for victim and perpetrator properties conferring DDI liability. Type of series: in vitro ADME, human. The conditions noted are these: in vitro flag, mainly based on in vitro determinations.
The conditions of series [2]: cited from earlier work.
The conditions of series [3]: cited from earlier work; for Log D pH 7.4: lumefantrine: ACD labs value, ref Charman et al., 2020 1.
For series [4] the following is noted: PBPK input, cited from earlier work.
For series [5] the following is noted: cited from earlier work; for CL renal: PBPK input, ref amodiaquine, DEAQ Winstanley et al., atovaquone Rolan et al., 1997 14, azithromycin Lalak et al., 1993 23, carboxyprimaquine Mihaly et al., 1987 29, DHA EMA Website, 44, mefloquine Schwartz et al., 1982 57, primaquine White, 1985 62, pyrimeth.
For series [6] the following is noted: cited from earlier work. The source holds these as a separate data set.
Series [7] can be described thus: PBPK simulation of drug-drug interactions (Simcyp V19). On the set-up: species or system human. To be noted: ratio of simulated to clinically observed AUC ratio; DDI of the respective line of Table S3. The source says:
Here, we provide three example applications where the available PBPK models were used to address questions relating to DDI assessment. […] Additional simulation methods are provided in Appendix S1.
All simulations, including the ones performed for the applications, were run using Version 19 of the Simcyp population-based PBPK simulator (Simcyp (Certara), Sheffield, UK) and unless stated otherwise, input parameters for all drugs are as specified (Supplementary Information Table S1). All simulations were run using ten virtual trials that were matched as closely as possible to the clinical study volunteers in terms of the number of subjects, their age, the proportion of males/females and according to the same study design.

The subject of another series is Caco-2 cells. The conditions noted are these: cited from earlier work.
For series [8] the following is noted: ref Charman et al., 2020 1; cited from earlier work.
The nature of series [9]: Hepatic / HLM intrinsic clearance, enzyme not defined. To be noted: human.
[10] abbreviates: 1987 9, 1985 26, chloroquine Walker et al., doxycycline Raghuram et al., 1982 48, Nguyen et al., 1989 49, proguanil Jeppesen et al., 1997 34.
[11] abbreviates: midazolam 7.5 mg QD + piperaquine 960 mg QD, ref Eurartesim - EMA Website, 12.
[12] abbreviates: midazolam 15 mg SD (Day 3) + azithromycin 500 mg QD (3 Days), ref Yeates et al., 1996 6.
Setting [13] is: midazolam 15 mg SD (Day 3) + azithromycin 500 mg QD (3 Days), ref Zimmermann et al., 1996 7.
Setting [14] is: midazolam 15 mg SD (Day 5) + azithromycin 500 mg QD (Day 1), 250 mg (Days 2-5), ref Backman et al., 1995 5.

The Log P is a log measure of how a compound divides between an organic and an aqueous phase. Take `CC[C@H]1OC(=O)[C@H](C)[C@@H](O[C@H]2C[C@@](C)(OC)[C@@H](O)[C@H](C)O2)[C@H](C)[C@@H](O[C@@H]2O[C@H](C)C[C@H](N(C)C)[C@H]2O)[C@](C)(O)C[C@@H](C)CN(C)[C@H](C)[C@@H](O)[C@]1(C)O` [Azithromycin, azithromycin]: in series [1], the “Risk as a perpetrator” value is reported as “CYP3A4 time‐dependent inhibitor” and the “Risk as a victim” value was “Cleared by biliary excretion”. For the same compound, in series [2] (in vivo, 500 mg), the “AUC Obs” value was 1.77 µg·h/mL and the “Cmax Obs” value was 0.41 µg/mL. For the same compound, the “Log P” value in series [3] (ref PubChem/DrugBank) is 4.02. Besides, in series [4] (ref atovaquone Mepron Prescribing Information, 2008, Nixon et al., 2013 13, Rolan et al., 1997 14, azithromycin Foulds et al., 1990 20, chloroquine Ofori-Adjei et al., 1986 27, Walker et al., 1983 28, DHA Batty et al., 2004 41 (healthy volunteers), lumefantrine CDER submission 22-269, proguanil Wattanagoon et al., 1987 63, tafenoquine Dow et al., 2020 84), the fu is reported as 0.69. Also, the CL renal in series [5] (setting [10]) is 8.67 L/h.

Take `COc1cc(NC(C)CCC(=O)O)c2ncccc2c1` (stereo not shown) [Carboxyprimaquine, carboxyprimaquine]: the “AUC Obs” value was 24.7 µg·h/mL in series [2] (15 mg QD (Day 14), 0-inf, ref Ward et al., 1985 14); 15.1 µg·h/mL in series [2] (15 mg SD, 0-24 h, ref Mihaly et al., 1985 12); 14.2 µg·h/mL in series [2] (15 mg SD, 0-inf, ref Ward et al., 1985 14); 44 µg·h/mL in [2] (30 mg SD, 0-inf, ref Hanboonkunupakarn et al., 2014 13); 47.2 µg·h/mL in [2] (30 mg SD, 0-inf, ref Jittamala et al., 2015 15); 39.9 µg·h/mL in series [2] (45 mg SD, 0-24 h, ref Mihaly et al., 1985 12). The “Cmax Obs” value is 1.24 µg/mL in series [2] (15 mg QD (Day 14), ref Ward et al., 1985 14); 0.736 µg/mL in series [2] (15 mg SD, ref Ward et al., 1985 14); 0.959 µg/mL in series [2] (30 mg SD, ref Hanboonkunupakarn et al., 2014 13); 1.04 µg/mL in series [2] (30 mg SD, ref Jittamala et al., 2015 15).

Turning to `C[C@H]1c2cccc(O)c2C(=O)C2=C(O)[C@]3(O)C(=O)C(C(N)=O)=C(O)[C@@H](N(C)C)[C@@H]3[C@@H](O)[C@@H]21` [Doxycycline, doxycycline], in series [1], the “Risk as a perpetrator” value is reported as “None identified”. For the same compound, the “Risk as a victim” value in [1] is “Cleared by renal and biliary excretion”. The “AUC Obs” value in series [2] (100 mg SD, 0-inf, first line, ref Malmborg, 1984 25) is listed as 40.1 µg·h/mL; in series [2] (100 mg SD, 0-inf, ref Grahnen et al., 1994 24) it was 29.9 µg·h/mL; in [2] (100 mg SD, 0-inf, second line, ref Malmborg, 1984 25) it was 37.4 µg·h/mL; in series [2] (100 mg q24h, 312-408 h, ref Binh et al., 2009 28), 37.3 µg·h/mL; in series [2] (200 mg SD, 0-inf, ref Wojcicki et al., 1985 26), 40.9 µg·h/mL; in [2] (200 mg q24h, malaria-infected, 0-24 h, ref Newton et al., 2005 27), 32.0 µg·h/mL. In addition, the “AUC Obs” value in [2] (200 mg q24h, malaria-infected, 144-168 h, ref Newton et al., 2005 27) is recorded as 48.6 µg·h/mL. Moreover, the “Cmax Obs” value is 1.75 µg/mL in series [2] (100 mg SD, ref Grahnen et al., 1994 24); 3.26 µg/mL in [2] (100 mg q24h, ref Binh et al., 2009 28); 2.61 µg/mL in [2] (200 mg SD, ref Wojcicki et al., 1985 26); 3.17 µg/mL in series [2] (200 mg q24h, malaria-infected, window 0-24 h, ref Newton et al., 2005 27); 4.44 µg/mL in series [2] (200 mg q24h, malaria-infected, window 144-168 h, ref Newton et al., 2005 27). Besides, the “Log D pH 7.4” value in series [3] was -0.2. For the same compound, in series [4] (ref Charman et al., 2020 1), the fu is reported as 0.23. The CL renal in [5] (setting [10]) is 0.87 L/h. Also, the “CL IV” value in [5] (clinically observed, ref atovaquone Lavelle et al., 1994 17, chloroquine Walker et al., 1987 29, Gustafsson et al., 1983 30, doxycycline Raghuram et al., 1982 48, Nguyen et al., 1989 49, primaquine Mihaly et al., 1985 26, quinine White et al., 1983 77, Paintaud et al., 1993 78) was 2.77 L/h.

With `Cc1ncc2n1-c1ccc(Cl)cc1C(c1ccccc1F)=NC2` [Midazolam, midazolam], the “AUC ratio Obs” value in series [6] (setting [11]) is not above 2 fold; in series [6] (setting [12]) it was 1.19; in [6] (setting [13]), 1.27; in series [6] (setting [14]), 0.87. Further, the “Cmax ratio Obs” value in series [6] (setting [11]) was not above 2 fold; in series [6] (setting [12]) it was 1.52; in [6] (setting [13]) it was 1.29; in [6] (setting [14]), 0.66. In addition, the “AUC ratios Sim/Obs” value in series [7] was 0.91 and 0.83 and 1.22.

For the compound `CC(C)NCC(O)COc1cccc2ccccc12` (stereo not shown) [Propranolol, propranolol], the “Papp A-B of calibrator” value in the series with Caco-2 cells (Caco-2) was 72 10-6 cm/s.

Take `C=C[C@H]1C[N@@]2CC[C@H]1C[C@H]2[C@H](O)c1ccnc2ccc(OC)cc12` [Quinine, quinine]: in [1], the “Risk as a perpetrator” value is listed as “CYP2D6 inhibitor” and the “Risk as a victim” value is “Substrate of CYP3A4”. Further, in series [2] (in vivo, 550 mg), the “AUC Obs” value was 50.89 µg·h/mL and the “Cmax Obs” value is 2.848 µg/mL. In addition, in series [8], the “B:P” value was 0.67.

With `COc1ncnc(NS(=O)(=O)c2ccc(N)cc2)c1OC` [Sulfadoxine, sulfadoxine], in [1], the “Risk as a perpetrator” value is listed as “None identified”. Further, the “Risk as a victim” value in series [1] is “Renally cleared”. For the same compound, the “Caco-2 (Papp A-B)” value in the series on Caco-2 cells (calibrated against propranolol, plasma as medium for atovaquone and piperaquine, ref Charman et al., 2020 1) is listed as 15 10-6 cm/s. Besides, the “AUC Obs” value is given as 14168 µg·h/mL in series [2] (500 mg SD, Caucasian, 0-inf, ref Weidekamm et al., 1982 35); 26689 µg·h/mL in series [2] (500 mg SD, South-East Asian, 0-inf, ref Sarikabhuti et al., 1988 44); 12465 µg·h/mL in [2] (500 mg weekly (20 weeks), 3360-3528 h, ref Schwartz et al., 1987 32); 33284 µg·h/mL in series [2] (1500 mg SD, 0-inf, ref Karunajeewa et al., 2009 43). For the same compound, the “Cmax Obs” value is listed as 63.2 µg/mL in series [2] (500 mg SD, Caucasian, ref Weidekamm et al., 1982 35); 77.0 µg/mL in series [2] (500 mg SD, South-East Asian, ref Sarikabhuti et al., 1988 44); 121 µg/mL in series [2] (500 mg weekly (20 weeks), ref Schwartz et al., 1987 32); 142 µg/mL in series [2] (1500 mg SD, ref Karunajeewa et al., 2009 43). The “Log D pH 7.4” value in series [3] is given as -0.78. Further, the fu in [4] (ref Charman et al., 2020 1) is listed as 0.036. Also, the “fm additional / undefined metabolism” value in series [9] was 10%. Moreover, the CL renal in series [5] (setting [10]) is reported as 0.035 L/h. The “CL PO” value in series [5] (clinically observed oral (in vivo) clearance, pyronaridine: blood, ref amodiaquine Winstanley et al., 1987 9, DEAQ Akande et al., 2015 8, Scarsi et al., 2014 35, Tarning et al., 2012 36, Orrell et al., 2008 37, DHA Na-Bangchang et al., 2004 42, lumefantrine Lefevre et al., 2002 52, Hoglund et al., 2015 53, mefloquine Charles et al., 2007 56, proguanil Jeppesen et al., 1997 34, pyronaridine Jittama) was 0.039 L/h. For the same compound, in series [5] (in vivo), the “fe (fraction excreted unchanged in urine)” value is recorded as 90%.
